Measured values as given in patent US20030199699A1, “3-(4,5-Dihydroisoxaxol-5-yl)benzoylcyclohexenones and the use thereof as herbicides” (priority 2000, published 2003).

Tests used:
redroot pigweed = assay: greenhouse herbicidal test, pre-emergence; type: in vivo, Amaranthus retroflexus; details: 125 or 62.5 g/ha
Excerpt: (§1) The culture containers used were plastic flower pots containing loamy sand with approximately 3.0% of humus as substrate. The seeds of the test plant were sown separately for each species.
(§2) For the pre-emergence treatment, the active ingredients, which were suspended or emulsified in water, were applied directly after sowing by means of finely distributing nozzles. The containers were irrigated gently to promote germination and growth and subsequently covered with transparent plastic hoods until the plants had rooted. This cover caused uniform germination of the test plants unless this was adversely affected by the active ingredients.
(§3) Depending on the species, the plants were kept at temperatures of from 10 to 25° C. or from 20 to 35° C. The test period extended over 2 to 4 weeks. During this time, the plants were tended, and their response to the individual treatments was evaluated.
(§4) Evaluation was carried out using a scale of from 0 to 100. 100 means no emergence of the plants, or complete destruction of at least the aerial parts, and 0 means no damage or normal course of growth.
(§5) The plants used in the greenhouse experiments belonged to the following species: […]

hairy fingergrass = assay: greenhouse herbicidal test, pre-emergence; type: in vivo, Digitaria sanguinalis; details: 125 or 62.5 g/ha
Excerpt: as §1, §2, §3, §4, §5

lambsquarters = assay: greenhouse herbicidal test, pre-emergence; type: in vivo, Chenopodium album; details: 125 or 62.5 g/ha
Excerpt: as §1, §2, §3, §4, §5

black nightshade = assay: greenhouse herbicidal test, pre-emergence; type: in vivo, Solanum nigrum; details: 125 or 62.5 g/ha
Excerpt: as §1, §2, §3, §4, §5

## CC1=NOC(c2c(S(C)(=O)=O)ccc(C(=O)C3=C(O)CCCC3=O)c2C)C1 (centres unmarked) [Compound 2.5, 2-[2-Methyl-3-(3-methyl-4,5-dihydroisoxazol-5-yl)-4-methylsulfonylbenzoyl]-1-hydroxycyclohex-1-en-3-one]
Redroot pigweed
  herbicidal action against redroot pigweed: highly efficiently
Hairy fingergrass
  herbicidal action against hairy fingergrass: highly efficiently
lambsquarters
  herbicidal action against lambsquarters: highly efficiently
Black nightshade
  herbicidal action against black nightshade: highly efficiently
other
  melting point: 135 to 140 °C
